The numbers were not newly measured in patent US20090198080A1, “METHOD FOR THE PREPARATION OF ARYL ETHERS” (Pfizer Inc, priority 2004, published 2009), which cites them from elsewhere.

The test system of one data set is 8-OH-DPAT hypothermia. The conditions noted are these: in vivo.
The conditions of data set [1]: different animal models.

Turning to `CCOc1ccccc1O[C@@H](c1ccccc1)[C@@H]1CNCCO1` (racemic) [reboxetine, 2-[α-(2-ethoxyphenoxy)benzyl]morpholine], the “norepinephrine reuptake inhibitory activity” value with norepinephrine reuptake is on record as “selective norepinephrine reuptake inhibitor”. Also, the “serotonin reuptake inhibitory activity” value in the data set with serotonin reuptake is “only marginal”. Moreover, in the data set on monoamine oxidase (MAO), the “monoamine oxidase (MAO) inhibitory activity” value is given as “substantially devoid”. Moreover, the “dopamine reuptake inhibitory activity” value with dopamine reuptake is on record as “no dopamine reuptake inhibitory activity”. Moreover, in the data set with 8-OH-DPAT hypothermia, the “effect in the 8-OH-DPAT hypothermia test” value is reported as “ineffective”. Moreover, in data set [1], the anticholinergic binding activity entry is recorded as “no anticholinergic binding activity”.
